From ChEMBL document CHEMBL1134093, “Amidino benzimidazole inhibitors of bacterial two-component systems” (Bioorg Med Chem Lett, 2001)
≈ marks a conversion by molar mass, not a printed value.

What was measured:
[1] = target: T1, KinA/Spo0F (sporulation kinase A/sporulation initiation phosphotransferase F) (Bacillus subtilis (strain 168), UniProt P06628+P16497); assay: Inhibition of KinA/Sp0F system two component (TCS) from Bacillus subtilis.; type: protein assay
T1 sequence (P06628 whole entry): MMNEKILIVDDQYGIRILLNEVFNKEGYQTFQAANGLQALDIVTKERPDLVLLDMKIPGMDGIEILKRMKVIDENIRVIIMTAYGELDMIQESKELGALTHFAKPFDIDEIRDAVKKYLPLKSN
T1 sequence (P16497 whole entry): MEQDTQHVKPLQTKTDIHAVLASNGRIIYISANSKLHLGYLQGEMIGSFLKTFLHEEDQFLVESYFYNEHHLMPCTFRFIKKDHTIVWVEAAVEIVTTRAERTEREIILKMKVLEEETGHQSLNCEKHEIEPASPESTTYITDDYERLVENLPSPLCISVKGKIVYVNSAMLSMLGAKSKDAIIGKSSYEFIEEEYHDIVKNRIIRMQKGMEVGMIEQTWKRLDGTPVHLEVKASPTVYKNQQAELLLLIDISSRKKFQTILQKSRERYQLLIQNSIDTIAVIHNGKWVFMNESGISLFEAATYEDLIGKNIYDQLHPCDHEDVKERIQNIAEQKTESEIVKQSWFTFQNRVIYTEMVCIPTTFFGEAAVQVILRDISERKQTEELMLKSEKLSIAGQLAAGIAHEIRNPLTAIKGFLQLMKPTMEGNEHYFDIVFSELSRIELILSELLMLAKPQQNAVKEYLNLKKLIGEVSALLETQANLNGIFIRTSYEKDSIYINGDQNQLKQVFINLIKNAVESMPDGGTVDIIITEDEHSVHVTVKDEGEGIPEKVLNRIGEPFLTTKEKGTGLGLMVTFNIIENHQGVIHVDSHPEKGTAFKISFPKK

Enterococcus faecium = assay: Inhibition of growth of Vancomycin resistant Enterococcus faecium (VRE) OC 3312.
Staphylococcus aureus [2] = assay: Inhibition of growth of methicillin resistant Staphylococcus aureus MRSA OC 2089.; type: functional
Enterococcus faecalis = assay: Inhibition of growth of Enterococcus faecalis OC 3041.; type: functional
Staphylococcus aureus [3] = assay: Inhibition of growth of Staphylococcus aureus ATCC 29213.; type: functional
[4] = target: T1, KinA/Spo0F (sporulation kinase A/sporulation initiation phosphotransferase F); assay: Inhibition of KinA/Sp0F system two component system (TCS) from Bacillus subtilis; type: protein assay
Staphylococcus aureus [5] = assay: Compound was evaluated for inhibition of growth of Staphylococcus aureus ATCC 29213; type: functional
Staphylococcus aureus [6] = assay: Compound was evaluated for inhibition of growth of methicillin resistant Staphylococcus aureus MRSA OC 2089; type: functional

SMILES	IC50 [1]	MIC (Enterococcus faecium)	MIC (Staphylococcus aureus [2])	MIC (Enterococcus faecalis)	MIC (Staphylococcus aureus [3])	IC50 [4]	MIC (Staphylococcus aureus [5])	MIC (Staphylococcus aureus [6])
CC(C)(C)c1cccc(-c2nc3cc(C(=N)N)ccc3[nH]2)c1O	6 µM	2 µg/mL (≈ 6.49 µM)	1 µg/mL (≈ 3.24 µM)	2 µg/mL (≈ 6.49 µM)	1 µg/mL (≈ 3.24 µM)	–	–	–
CC(C)(C)c1cc(-c2nc3cc(C4=NCCN4)ccc3[nH]2)c(O)c(C(C)(C)C)c1	10 µM	1 µg/mL (≈ 2.56 µM)	1 µg/mL (≈ 2.56 µM)	1 µg/mL (≈ 2.56 µM)	1 µg/mL (≈ 2.56 µM)	–	–	–
CC(C)(C)c1cc(-c2nc3cc(C(=N)N)ccc3[nH]2)c(O)c(C(C)(C)C)c1	12 µM	1 µg/mL (≈ 2.74 µM)	2 µg/mL (≈ 5.49 µM)	2 µg/mL (≈ 5.49 µM)	1 µg/mL (≈ 2.74 µM)	–	–	–
CC(C)(C)c1cc(-c2nc3cc(C(=N)N)ccc3o2)c(O)c(C(C)(C)C)c1	14 µM	1 µg/mL (≈ 2.74 µM)	1 µg/mL (≈ 2.74 µM)	1 µg/mL (≈ 2.74 µM)	1 µg/mL (≈ 2.74 µM)	–	–	–
N=C(N)c1ccc2oc(-c3ccc(Oc4ccccc4)cc3)nc2c1	138 µM	–	–	–	–	–	–	–
N=C(N)c1ccc2nc(-c3ccc(-c4ccccc4)cc3)[nH]c2c1	88 µM	–	–	–	–	–	–	–
N=C(N)c1ccc(Oc2ccc(-c3cc4ccc(C(=N)N)cc4[nH]3)cc2)cc1	–	0.5 µg/mL (≈ 1.35 µM)	0.5 µg/mL (≈ 1.35 µM)	1 µg/mL (≈ 2.71 µM)	1 µg/mL (≈ 2.71 µM)	31 µM	–	–
N=C(N)c1ccc2nc(-c3ccc(Oc4ccccc4)cc3)[nH]c2c1	–	16 µg/mL (≈ 48.7 µM)	–	16 µg/mL (≈ 48.7 µM)	–	–	8 µg/mL (≈ 24.4 µM)	16 µg/mL (≈ 48.7 µM)
COC(=O)c1ccc2[nH]c(-c3cc(C(C)(C)C)cc(C(C)(C)C)c3O)nc2c1	380 µM	–	–	–	–	–	–	–
COc1c(-c2nc3cc(C(=N)N)ccc3[nH]2)cc(C(C)(C)C)cc1C(C)(C)C	–	4 µg/mL (≈ 10.6 µM)	4 µg/mL (≈ 10.6 µM)	8 µg/mL (≈ 21.1 µM)	4 µg/mL (≈ 10.6 µM)	–	–	–
Cc1onc(-c2ccccc2)c1C(=O)N[C@@H]1C(=O)N2[C@@H]1SC(C)(C)[C@@H]2C(=O)O [OXACILLIN]	–	> 64 µg/mL	> 64 µg/mL	16 µg/mL (≈ 39.9 µM)	0.25 µg/mL (≈ 0.623 µM)	–	–	–
N=C(N)c1ccc2cc(-c3ccc(Oc4ccccc4)cc3)[nH]c2c1	7.7 µM	4 µg/mL (≈ 12.2 µM)	4 µg/mL (≈ 12.2 µM)	4 µg/mL (≈ 12.2 µM)	4 µg/mL (≈ 12.2 µM)	–	–	–
N=C(N)c1ccc2[nH]c(-c3ccc(N(c4ccccc4)c4ccccc4)cc3)nc2c1	17 µM	4 µg/mL (≈ 9.91 µM)	16 µg/mL (≈ 39.7 µM)	4 µg/mL (≈ 9.91 µM)	4 µg/mL (≈ 9.91 µM)	–	–	–
N=C(N)c1ccc2nc(-c3ccc(Oc4ccccc4)cc3)oc2c1	49 µM	–	–	–	–	–	–	–
N=C(N)c1ccc2[nH]c(-c3ccccc3)nc2c1	> 500 µM	–	–	–	–	–	–	–
CC(C)(C)c1cc(-c2nc3cc(C(=N)N)ccc3[nH]2)cc(C(C)(C)C)c1	25 µM	4 µg/mL (≈ 11.5 µM)	4 µg/mL (≈ 11.5 µM)	4 µg/mL (≈ 11.5 µM)	2 µg/mL (≈ 5.74 µM)	–	–	–
Cn1c(-c2ccc(Oc3ccccc3)cc2)nc2cc(C(=N)N)ccc21	44 µM	32 µg/mL (≈ 93.5 µM)	32 µg/mL (≈ 93.5 µM)	> 64 µg/mL	16 µg/mL (≈ 46.7 µM)	–	–	–
CC(C)(C)c1cc(-c2nc3ccc(C(=N)N)cc3o2)c(O)c(C(C)(C)C)c1	15.4 µM	1 µg/mL (≈ 2.74 µM)	2 µg/mL (≈ 5.47 µM)	2 µg/mL (≈ 5.47 µM)	2 µg/mL (≈ 5.47 µM)	–	–	–
CC(C)(N)CNC(=O)c1ccc2[nH]c(-c3cc(C(C)(C)C)cc(C(C)(C)C)c3O)nc2c1	10 µM	–	–	–	–	–	–	–
CC(C)(C)c1cccc(-c2nc3cc(C(=N)N)ccc3[nH]2)c1	163 µM	–	–	–	–	–	–	–
CC(C)(C)c1ccc(O)c(-c2nc3cc(C(=N)N)ccc3[nH]2)c1	–	16 µg/mL (≈ 51.9 µM)	8 µg/mL (≈ 25.9 µM)	16 µg/mL (≈ 51.9 µM)	8 µg/mL (≈ 25.9 µM)	–	–	–
